Point of comparison: `COC(=O)c1ccc(N)c(NC(=O)c2ccc(C(C)(C)C)cc2)c1`, melting point 175 °C. Against it:
- COc1ccc(-n2nc(C(=O)NC(C)(C)C)c3c2C2CCC3C2)cc1 (stereo not drawn) — lower, 145 to 147 °C
- O=C(O)c1ccccc1C(=O)N1Cc2ccccc2Cc2ccccc21 — higher, 220 to 225 °C
- COC(=O)C(c1ccc(NC(C)=O)cc1)C1CC1 (stereo not drawn) — lower, 159 to 162 °C
- CN1CCC(=C2c3cc(C=O)n(C)c3CCn3ncnc32)CC1 — higher, 204 °C
- Nc1ccc(C=CC(=O)N2CCc3c([nH]c4ccccc34)C2c2ccc3c(c2)OCO3)cc1 (stereo not drawn) — higher, 262 to 265 °C
- Cc1cc(NC(=O)CN2CCN(c3ccccc3C#N)CC2)ccc1Br — lower, 143 to 145 °C
- Cc1cc(C2(C(F)(F)F)CC(C(F)(F)F)=NO2)ccc1NC(=O)c1cccc(I)c1C(=O)NC(C)C (stereo not drawn) — higher, 240 to 242 °C
- Nc1cccc2c3c([nH]c12)C(=O)CCC3 — higher, 233 to 234 °C
- CSc1nn2c(N(C)C)cc(C)nc2c1S(=O)(=O)c1ccc2ccccc2c1 — higher, > 230 °C
- CS(=O)(=O)Nc1ccc(C=C2c3ccccc3CCc3ccccc32)cc1 — higher, 211 °C
- CC(c1cc2cc(Cl)ccc2o1)N(O)C(N)=O (stereo not drawn) — not separable, 174 to 175 °C
- COC(=O)c1ccc(CNS(C)(=O)=O)cc1S(N)(=O)=O — higher, 185 to 187 °C
- O=Cc1ccc2c(c1I)OCO2 — lower, 124 to 126 °C
- Cc1ccc(C(=O)/C=C/c2cc(C(C)(C)C)c3oc(=O)c(C(=O)O)cc3c2)cc1 — higher, 185 to 186 °C
- CN1C(=O)C2(CCNCC2)c2ccccc21 — lower, 146 to 151 °C
- N#CC(C=O)=Cc1ccsc1 — lower, 123 to 124 °C
- CCOc1cc(C(=O)CCCC2CCCCC2)c(O)cc1C — lower, 48 to 49 °C
- C1=Cc2cccnc2N(C2CC2)c2ncccc21 — higher, 184 to 185 °C
- CCOc1ccc(O)c(F)c1F — lower, 73 °C
- FC(F)(F)c1cccc(Nc2nccc(-c3ccnc(Cl)c3)n2)c1 — lower, 169 to 171 °C
- N#Cc1cc(Oc2ccc(Cl)cc2Cl)c(O)cc1Cl — lower, 145 to 150 °C
- CCN(CC)Cc1ccccc1Oc1ccc(-c2cn(C3CCOC3)c3ncnc(N)c23)cc1 (stereo not drawn) — lower, 107 to 110 °C
- CN1C(=O)C2(COc3cc4c(cc32)OCCO4)c2c(C(=O)O)cccc21 (stereo not drawn) — higher, 297 to 299 °C
- COC(=N)Nc1nc(Cl)cc(Cl)n1 — higher, 178 °C
- CCCc1ccc(CCNC(C)=O)cc1 — lower, 52 °C
- COC(=O)N1CCCC2(Cc3ccc(Br)cc3)C(=O)N(c3cc(Cl)nc(Cl)c3)C(=O)N12 (stereo not drawn) — lower, 81 °C
- COc1ccc2cc(N(C(C)=O)c3ccc(O)cc3)ccc2c1 — higher, 187 to 188 °C
- CC(C)Cn1cnc(C#N)c1N — higher, 186 to 188 °C
- O=C1CN(c2ccccc2)C(=O)N1C(=O)c1ccc(Cl)cc1 — higher, 182 to 184 °C
- CCCCC(=O)NCc1ccc(I)cc1 — lower, 80 to 81 °C
- Cn1c(=O)nc(-c2ccccc2)c2cc([N+](=O)[O-])ccc21 — higher, 261 to 264 °C
- Cn1cc(C(=O)C(Cl)Cl)c(=O)c(-c2cccc(Cl)c2)c1 — higher, 201 to 202 °C
- Cn1cnc(Cc2cccc(CO)c2O)c1 — lower, 139 to 144 °C
- CC(=O)Nc1ccc(Sc2c(NCC3CC3)cc(C(=O)O)cc2S(N)(=O)=O)cc1 — higher, 200 to 204 °C
- COC(=O)c1c(N)c2c(c(N)c1C#N)C(=O)c1ccccc1C2=O — higher, 215 to 218 °C
- CC(=O)SCCC(=O)[C@@H]1CCCC[C@H]1C(=O)O (relative stereo) — lower, 65 to 68 °C
- CCOC(=O)/C=C(\C)c1ccc(C2COc3c(C)c(C)c(NC(=O)CC(C)(C)C)c(C)c32)cc1 (stereo not drawn) — higher, 179 to 180 °C
- O=C(O)Cc1ccc(-n2cnc3cnc4ccccc4c32)cc1 — higher, 236 to 240 °C
- Cc1c(C(=O)NNC(C)(C)C)ccc2c1CCCO2 — lower, 146 to 148 °C
- CCOC(=O)C1=C(C)N=C(SCc2ccccc2)N(C(=O)OCC)C1c1ccccc1[N+](=O)[O-] (stereo not drawn) — lower, 110 to 112 °C
- CCOC(=O)C(NC(=O)C(C)C)C(=O)Cc1ccc(Cl)cc1Cl (stereo not drawn) — lower, 139 to 140 °C
- COC1CC(n2cc(C=CBr)c(=O)n(C)c2=O)OC1CF (stereo not drawn) — lower, 95 °C
- FC(F)(F)c1cc(Nc2nnc(CCCc3cccnc3)c3ccccc23)ccc1Cl — lower, 142 °C
- OCc1cc(O)cc(Nc2c3ccccc3nc3ccccc23)c1 — higher, 201 to 202 °C
- O=C1OCc2ccc(CO)cc21 — lower, 107 to 108 °C
- CCCCCCCCCCCCCCCCOCC(CF)COC(c1ccccc1)(c1ccccc1)c1ccccc1 (stereo not drawn) — lower, 32 °C
- COc1ccc(/C=C/C(=O)Nc2ccccc2C(=O)O)cc1OC1CCCC1 — higher, 211 to 217 °C
- CCC(C)n1c(=O)ccc2cnc(Nc3ccccc3)nc21 (stereo not drawn) — lower, 155 to 156 °C
- CCCCc1nc(SCCOC(C)=O)c(C(=O)OCC)[nH]1 — lower, 68 °C
- O=C(O)c1cccc(N2C(=O)c3cccc([N+](=O)[O-])c3C2=O)c1 — higher, 354 to 355 °C
- NC(=O)c1cc2c(cc1OCC1CCCCC1)OCCCC2=O — higher, 185 to 186 °C
- CC(O)c1cccc(-c2ccc3nc(-c4ccc(Cl)cc4)cn3c2)c1 (stereo not drawn) — lower, 168 to 170 °C
- CCOc1ccc2c(c1)n(-c1ccccn1)c(=O)n2S(=O)(=O)c1ccc([N+](=O)[O-])cc1OC — the same, 175 °C
- COc1ccc(C(=O)c2c(C)n(C)c(=O)n2C)cc1 — lower, 109 to 111 °C
- O=C(O)Cc1ccc2c(c1)C(=O)c1ccc(Cl)cc1CO2 — higher, 188 to 190 °C
- N#Cc1cccc(CCN2CCN(Cc3ccc(Cl)nc3)C2=N[N+](=O)[O-])c1 — higher, 204 to 206 °C
- C=CC[C@@H]1C[C@@H](COC(c2ccccc2)(c2ccccc2)c2ccccc2)N(Cc2ccc(OC)cc2)C1=O — lower, 130 to 132 °C
- O=C1NCC[C@@H](c2ccc(Oc3ccccc3)cc2)[C@@H]1c1ccccc1 (relative stereo) — lower, 157 to 159 °C
- CC1=C2OCOC2CC(C)(C)C1=O (stereo not drawn) — lower, 55.5 to 57 °C
- O=C(c1ccc(F)cc1)C1CCN(CC2CC(c3ccc4[nH]c(=O)oc4c3)=NO2)CC1 (stereo not drawn) — higher, 188 to 190 °C
- O=S1(=O)N[C@@H](c2cccc(Cl)c2)c2ccccc21 — lower, 137 to 138 °C
- C=CCc1cc(C2=NNC(=O)CC2)ccc1O — higher, 240 to 244 °C
- O=C1CCC(N2C(=O)c3cccc(Nc4ccc5c(c4)OCO5)c3C2=O)C(=O)N1 (stereo not drawn) — higher, > 260 °C
- CCOC(=O)c1cc2ccccc2nn1 — lower, 158 to 160 °C
- COc1cccc2c1C[C@@H](NC=O)CC2 — lower, 140 to 141 °C
- COc1ccc(Nc2cc(-c3ccccc3)nc(NC3CCC(O)CC3)n2)cc1Cl (stereo not drawn) — higher, 293 to 295 °C
- CC(=O)c1ccc(S(=O)(=O)N2CCCC2)cc1 — lower, 138 to 139 °C
- CCCCOc1nc(N)c2[nH]c(=O)n(CCCCN(Cc3cccc(CC(=O)O)c3)CC(C)(C)CN(C)C)c2n1 — higher, 189 to 190 °C
- O=C(O)c1cc(-n2c(-c3cccs3)cc3c2CCCC3)ccc1O — higher, 211 to 213 °C
- CC(C)(C)C(=O)Nc1nc(O)c2c(n1)NCC(CCC1CCC(C(=O)O)CC1)C2 (stereo not drawn) — higher, 218 to 234 °C
- CCOCN(C(=O)CCl)c1c(C)cccc1[N+](=O)[O-] — lower, 96 to 98 °C
- NCc1cccc(C2CCN(c3nc4c(cc3F)c(=O)c(C(=O)O)cn4C3CC3)C2)c1 (stereo not drawn) — higher, 274 to 276 °C
- CC(C)OC(=O)c1cc(O)cc2cc(-c3ccc(O)cc3)oc12 — higher, > 250 °C
- Cc1ccc(-c2nc(-c3ccc(C)cc3C)nc(-c3cc(C(C)(C)c4ccccc4)c(O)cc3O)n2)c(C)c1 — lower, 168 to 170 °C
- Cc1c(Cc2cccnc2)sc2ccc(C(N)=O)cc12 — higher, 194 to 195 °C
- COC1C(OC(=O)c2ccccc2)C(COC(=O)c2ccccc2)OC1n1cc(C)c(=O)[nH]c1=O (stereo not drawn) — lower, 128 to 130 °C
- COc1cccc2cnc(C)nc12 — lower, 131 to 132 °C
- Clc1ccc([C@H]2Cc3cnc(Nc4ccccc4)nc3-c3ccccc32)cc1Cl — lower, 156 to 157 °C
- Brc1ccccc1SSc1ccccc1Br — lower, 95 to 97 °C
- COc1ccc2ccc(N3C(=O)c4ccccc4C3OCC(=O)OC(C)(C)C)nc2n1 (stereo not drawn) — higher, 188 °C
- CN(C)C(=O)Nc1cnc(N(C)C)c(Cl)c1 — lower, 139 to 141 °C
- CC(=O)N1CCC(c2nc(-c3ccncc3)c(-c3ccc(F)cc3)[nH]2)CC1 — higher, 235 to 236 °C
- CC1(C(=O)Nc2ccc(OCc3ccccc3)c(C(F)(F)F)c2)CC1 — lower, 120 to 122 °C
- COc1ccc(Cc2ccc(CO)nc2)cc1 — lower, 55 to 58 °C
- CCOC(=O)C1=C(COCc2nnc(CN(C)C)s2)NC(C)=C(C(=O)OC)C1c1cccc(Cl)c1Cl (stereo not drawn) — lower, 168 to 170 °C
- CC(C)N(C)C(=O)NS(=O)(=O)c1cc(-n2c(=O)cc(C(F)(F)F)n(C)c2=O)c(F)cc1Cl — lower, 145 °C
- COc1ccccc1-c1ccc(C[C@@H](NC(=O)c2c(Cl)cccc2Cl)C(=O)O)cc1 — higher, 195 °C
- O=C(NCCOc1ccc(CC(Sc2ccccc2)C(=O)O)cc1)c1ccc(-c2ccccn2)cc1 (stereo not drawn) — lower, 75 to 77 °C
- CCOC(=O)c1nocc1O — lower, 59 to 60 °C
- OC(=Cc1ccccc1)C(O)C(O)C(O)C(O)C(O)=Cc1ccccc1 (stereo not drawn) — higher, 210 °C
- Cc1cc(-n2ccnc2)c2cccc(OCc3c(Cl)ccc(S(=O)(=O)N4CCC[C@H]4C(=O)NCC4CCN(CC(=O)OC(C)(C)C)CC4)c3Cl)c2n1 — lower, 100 °C
- Cc1nc(-c2ccc(C(=O)N3CCN(S(=O)(=O)c4ccc5cc(Br)ccc5c4)CC3)cc2)c[nH]1 — higher, 215 to 216 °C
- S=C(Cc1cccnc1)N1CCC(=C2c3ccc(Cl)cc3CCc3cccnc32)CC1 — lower, 92 to 93 °C
- CCCc1c(SC(=O)N(C)C)ccc(C(C)=O)c1OCCCC(=O)OCC — lower, 60 to 63 °C
- C#CCOc1ncc(F)cc1OC — lower, 67 to 69 °C
- CC(C)C1(C)Cc2cc(OCC(=O)O)c(Cl)c(Cl)c2C1=O (stereo not drawn) — lower, 148 °C
- CCCCCCCCCCCCc1cc(N)no1 — lower, 79.5 to 81 °C
- N#Cc1cc(N)ccc1N1CCC(N2CCOCC2)CC1 — lower, 84 to 86 °C
- CCN(CC)c1nsc(NC(=O)NC)c1C(N)=O — higher, 195 to 197 °C
- COC(=O)NNc1cc(C)c(Cl)c2c1OC(C)C2 (stereo not drawn) — lower, 157 to 160 °C
- Fc1ccc(-c2onc3c(CBr)cccc23)cc1 — lower, 145 to 148 °C
- COC(=O)NNC(=O)Nc1cccc2c1C(=O)c1c-2n[nH]c1-c1ccc(OC)cc1 — higher, > 300 °C

From a melting point compilation (Tetko et al.; mined from patent text by program, amines drawn as free bases though some values may be those of a salt)
